Data: patent US4632928A, “Pyrazole derivatives with an ergoline skeleton, their acid addition salts, and a process for the preparation thereof” (Richter Gedeon Vegyeszeti Gyar R.T., priority 1983, dated 1986)
Structures can show the parent of a compound that is named as a salt. Where two headings read alike, the source gives them in different places.

Experiments:
uterine musculature = conditions: known compounds with ergoline skeleton; cited from earlier work
[1] = Acute toxicity in CFLP mice (Probite analysis according to Litchfield-Wilcoxon); conditions: mouse, in vivo
Description: Acute toxicity of pyrazole derivatives of
general formula (I) in CFLP mice
Method: Probite analysis according to Litchfield-
Wilcoxon [J. Pharm. Exp. Ther. 96, 99 (1949)]

PGF2alpha receptor [2] = biological target: T1, PGF2alpha receptor (Rattus norvegicus, UniProt P43118); assay: PGF2alpha antagonist effect in vitro in isolated rat uterus; conditions: compound 2 × 10^-6 M, PGF2alpha 1.4 × 10^-7 M, read-out: Percentual inhibition at concentrations of 2 × 10^-6 M against 1.4 × 10^-7 M PGF2alpha
T1 construct: in the isolated rat uterus; from tissue; host or cells: isolated rat uterus
T1 sequence (P43118 whole entry): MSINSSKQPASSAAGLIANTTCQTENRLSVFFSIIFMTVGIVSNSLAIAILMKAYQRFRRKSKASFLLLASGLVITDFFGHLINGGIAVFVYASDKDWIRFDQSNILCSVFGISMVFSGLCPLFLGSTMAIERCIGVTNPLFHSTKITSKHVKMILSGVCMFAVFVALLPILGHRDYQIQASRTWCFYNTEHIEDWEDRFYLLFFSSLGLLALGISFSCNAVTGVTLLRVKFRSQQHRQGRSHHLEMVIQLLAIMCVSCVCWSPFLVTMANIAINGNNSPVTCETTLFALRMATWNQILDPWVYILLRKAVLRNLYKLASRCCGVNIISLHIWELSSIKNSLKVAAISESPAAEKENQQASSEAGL
Description: (§1) In vitro, in the isolated rat uterus (Table 1), and in vivo in rabbits under urethane anesthesis (Table 2) they antagonize the uterine contraction inducing activity of PGF2alpha. The competitive antagonist effect of the compounds is selective and protracted, while it fails to influence the uterine contraction inducing effect of other endogeneous compounds, i.e. oxytocin. This would enable their use as spasmolytic agents of new mechanism of action in the field of obstetrics and gynecology for the treatment of dysmenorrhea and anovulation, and the prevention of imminent and habitual abortus and miscarriage.
PGF2alpha antagonist effect of the compounds of general
formula (I) in vitro in isolated rat uterus
Method: 1. J. H. Gaddum and K. A. Hammed:
2. O. Arunlakshana and H. O Schild:
Compound Percentual inhibition at concentrations

PGF2alpha receptor [3] = assay: In vivo PGF2alpha antagonist effect in urethane anesthesized rabbits; conditions: PGF2alpha 6.25 μg/kg iv; for Duration of the effect: rabbits; for Inhibition: urethane anesthesized rabbits
Description: as §1
In vivo PGF2alpha antagonist effect of pyrazole deriva-
tives of general formula (I) in urethane (1.2 g/kg iv)
1. D. F. Hawkins: Agents Acting on the Uterus.
In: Evaluation of Drug Activities: Pharma-
cometrics. Edited by R. Lawrence and A. L.
Bacharach. Academic Press, London, p. 680 (1964)
2. A. R. Cushny: J. Physiol. 35, 1 (1906)
PGF2alpha standard dose: 6.25 μg/kg iv

Row | Compound | LD50 ([1]; ip, read-out: LD50 ip) [mg/kg] | LD50 ([1]; po, read-out: LD50 po) [mg/kg] | inhibition at 2 µM (PGF2alpha receptor [2]) [%] | also measured
1 | CN1C[C@H](C(=O)N[C@]2(C)O[C@@]3(O)[C@@H]4CCCN4C(=O)[C@H](Cc4ccccc4)N3C2=O)C=C2c3cccc4[nH]cc(c34)C[C@H]21 [ergotamine] | – | – | – | effect on the uterine musculature (uterine musculature): inducing uterine contraction
2 | Cc1cc(-c2ccccn2)nn1C[C@@H]1C=C2c3cccc4[nH]cc(c34)C[C@H]2N(C)C1 [Example 16, 8-beta-[3(5)-/2-Pyridyl/-5(3)-methyl-pyrazol-1-yl-methylene]-6-methyl-ergol-9-ene] | > 100 | > 100 | 18 | –
3 | CN1C[C@H](Cn2nc(-c3cccnc3)c3c2CCC3)C=C2c3cccc4[nH]cc(c34)C[C@H]21 [Example 5, 8-beta-[3(5)-(3-Pyridyl)-cyclopentano/4,5(3,4)/pyrazol-1-yl-methylene]-6-methyl-ergol-9-ene] | > 100 | > 100 | 46 | –
4 | C[C@@H](CO)NC(=O)[C@@H]1C=C2c3cccc4[nH]cc(c34)C[C@H]2N(C)C1 [ergometrin] | – | – | – | effect on the uterine musculature (uterine musculature): inducing uterine contraction
5 | CN1C[C@H](C(=O)N[C@]2(C)O[C@@]3(O)[C@@H]4CCCN4C(=O)[C@H](Cc4ccccc4)N3C2=O)C[C@@H]2c3cccc4[nH]cc(c34)C[C@H]21 [dihydroergotamine] | – | – | – | effect on the uterine musculature (uterine musculature): uterine relaxants
6 | Cc1nn(C[C@@H]2C=C3c4cccc5[nH]cc(c45)C[C@H]3N(C)C2)c2c1CCC2 [Example 1, 8-beta-[3(5)-Methyl-cyclopentano/4,5(3,4)/pyrazol-1-yl-methylene]-6-methyl-ergol-9-ene] | 3100 | 2450 | 70 | Duration of the effect (PGF2alpha receptor [3]; 0.3 mg/kg intraduodenal): > 180 min; Inhibition (PGF2alpha receptor [3]; 0.3 mg/kg intraduodenal): 38%; Duration of the effect (PGF2alpha receptor [3]; 1.0 mg/kg intraduodenal): > 180 min; Inhibition (PGF2alpha receptor [3]; 1.0 mg/kg intraduodenal): 49%
7 | CCOC(=O)c1nn(C[C@@H]2C=C3c4cccc5[nH]cc(c45)C[C@H]3N(C)C2)c(O)c1C [Example 15, 8-beta-(3-Carbethoxy-4-methyl-5-hydroxy-pyrazol-1-yl-methylene)-6-methyl-ergol-9-ene] | > 100 | > 100 | 40 | –
8 | Cc1nn(C[C@@H]2C=C3c4cccc5[nH]cc(c45)C[C@H]3N(C)C2)c2c1C(=O)CC(C)(C)C2 [Example 10] | > 100 | > 100 | 66 | Duration of the effect (PGF2alpha receptor [3]; 20.0 mg/kg intraduodenal): 90 min; Inhibition (PGF2alpha receptor [3]; 20.0 mg/kg intraduodenal): 42%
9 | CC[C@@H](CO)NC(=O)[C@@H]1C=C2c3cccc4[nH]cc(c34)C[C@H]2N(C)C1 [methylergometrin] | – | – | – | effect on the uterine musculature (uterine musculature): inducing uterine contraction
10 | Cc1nn(C[C@@H]2C=C3c4cccc5c4c(cn5C)C[C@H]3N(C)C2)c2c1CCC2 [Example 2, 8-beta-[3(5)-Methyl-cyclopentane/4,5(3,4)/pyrazol-1-yl-methylene]-1,6-dimethyl-ergol-9-ene hydrogen maleinate] | > 100 | > 100 | 58 | –
11 | Cc1nn(C[C@@H]2C=C3c4cccc5[nH]cc(c45)C[C@H]3N(C)C2)c2c1CCC2 [Hydrogen-fumarate of 1, 8-beta-[3(5)-methyl-cyclopentano/4,5(3,4)/pyrazol-1-yl-methylene]-6-methyl-ergol-9-ene hydrogen fumarate] | – | – | – | Duration of the effect (PGF2alpha receptor [3]; 3.0 mg/kg intraduodenal): > 180 min; Inhibition (PGF2alpha receptor [3]; 3.0 mg/kg intraduodenal): 63%
12 | C=CCc1c(C)nn(C[C@@H]2C=C3c4cccc5[nH]cc(c45)C[C@H]3N(C)C2)c1C [Example 14, 8-beta-(3,5-Dimethyl-4-allyl-pyrazol-1-yl-methylene)-6-methyl-ergol-9-ene] | > 100 | > 100 | 77 | –
13 | Cc1nn(C[C@@H]2C=C3c4cccc5[nH]cc(c45)C[C@H]3N(C)C2)c2c1C(=NO)CC(C)(C)C2 [Example 11, 8-beta-[3(7),6(4)-Trimethyl-4(6)-hydroxy-imino-cyclohexano/4,5(3,4)/pyrazol-1-yl-methylene]-6-methyl-ergol-9-ene] | > 100 | > 100 | 80 | Duration of the effect (PGF2alpha receptor [3]; 20.0 mg/kg intraduodenal): > 120 min; Inhibition (PGF2alpha receptor [3]; 20.0 mg/kg intraduodenal): 72%
14 | Cc1nn(C[C@@H]2C[C@@H]3c4cccc5[nH]cc(c45)C[C@H]3N(C)C2)c2c1CCC2 [Example 4, 8-beta-[3(5)-Methyl-cyclopentano/4,5(3,4)/pyrazol-1-yl-methylene]-6-methyl-ergoline] | > 100 | > 100 | – | –
15 | Cc1nn(C[C@@H]2C=C3c4cccc5[nH]cc(c45)C[C@H]3N(C)C2)c2c1CCCC2 [Example 9, 8-beta-[3(5)-Methyl-cyclohexano/4,5(3,4)/pyrazol-1-yl-methylene]-6-methyl-ergol-9-ene] | > 100 | > 100 | 40 | Duration of the effect (PGF2alpha receptor [3]; 3.0 mg/kg intraduodenal): > 180 min; Inhibition (PGF2alpha receptor [3]; 3.0 mg/kg intraduodenal): 58%; Duration of the effect (PGF2alpha receptor [3]; 10.0 mg/kg intraduodenal): > 180 min; Inhibition (PGF2alpha receptor [3]; 10.0 mg/kg intraduodenal): 68%
16 | Cc1nn(C[C@@H]2C=C3c4cccc5[nH]cc(c45)C[C@H]3N(C)C2)c2c1C(=O)CC2 [Example 6, 8-beta-[3(6)-Methyl-4(5)-oxo-cyclopentano/4,5(3,4)/pyrazol-1-yl-methylene]-6-methyl-ergol-9-ene] | > 200 | 1000 | – | –
17 | Cc1cc(-c2ccccn2)nn1C[C@@H]1C[C@@H]2c3cccc4[nH]cc(c34)C[C@H]2N(C)C1 [Example 17, 8-beta-[3(5)-/2-Pyridyl/-5(3)-methyl-pyrazol-1-yl-methylene]-6-methyl-ergoline] | > 100 | > 100 | 44 | Duration of the effect (PGF2alpha receptor [3]; 10.0 mg/kg intraduodenal): 120 min; Inhibition (PGF2alpha receptor [3]; 10.0 mg/kg intraduodenal): 55%; Duration of the effect (PGF2alpha receptor [3]; 20.0 mg/kg intraduodenal): > 150 min; Inhibition (PGF2alpha receptor [3]; 20.0 mg/kg intraduodenal): 77%
18 | hydergine | – | – | – | effect on the uterine musculature (uterine musculature): uterine relaxants
19 | Cc1nn(C[C@@H]2C=C3c4cccc5[nH]cc(c45)C[C@H]3N(C)C2)c2c1C(O)CC2 (stereo partly drawn) [Example 7, 8-beta-[3(6)-Methyl-4(5)-hydroxy-cyclopentano/4,5(3,4)/pyrazol-1-yl-methylene]-6-methyl-ergol-9-ene] | > 100 | > 100 | – | –
20 | CC(=O)c1c(C)nn(C[C@@H]2C=C3c4cccc5[nH]cc(c45)C[C@H]3N(C)C2)c1C [Example 18, 8-beta-[3,5-Dimethyl-4-(1-oxo-ethyl)-pyrazol-1-yl-methylene]-6-methyl-ergol-9-ene] | > 100 | > 100 | – | –
21 | CC(C)C[C@H]1C(=O)N2CCC[C@H]2[C@]2(O)O[C@](NC(=O)[C@@H]3C=C4c5cccc6[nH]c(Br)c(c56)C[C@H]4N(C)C3)(C(C)C)C(=O)N12 [bromocryptine] | – | – | – | effect on the uterine musculature (uterine musculature): uterine relaxants
22 | Cc1nn(C[C@@H]2C=C3c4cccc5[nH]cc(c45)C[C@H]3N(C)C2)c2c1C(=NO)CC2 [Example 8, 8-beta-[3(6)-Methyl-4(5)-hydroxy-imino-cyclopentano/4,5(3,4)/pyrazol-1-yl-methylene]-6-methyl-ergol-9-ene] | > 100 | > 100 | – | –
